Assay results as given in ChEMBL document CHEMBL1201862, “PubChem BioAssay data set” (2004).
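Each compound was tested at five concentrations against cells in 96-well plates for 48 hours. Abbreviation: GI50, concentration required for 50% inhibition of growth.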 Activity calls are given as the source filed them. No stated cut-off is given here; in the data, active = GI50 up to about 1.1 µM and inactive = higher.

How the values were obtained:
Assay in all cases: NCI anticancer screen, dose series, 48 h
[1] = test system: UACC-62
[2] = test system: EKVX
[3] = test system: BT-549
[4] = test system: M14
[5] = test system: SN12C
[6] = test system: OVCAR-8
[7] = test system: SK-MEL-2
[8] = test system: OVCAR-5
[9] = test system: CCRF-CEM
[10] = test system: RXF 393
[11] = test system: 786-0
[12] = test system: TK-10
[13] = test system: SF-295
[14] = test system: DU-145
[15] = test system: MDA-MB-435
[16] = test system: Malme-3M
[17] = test system: NCI/ADR-RES
[18] = test system: SF-539
[19] = test system: SR

Measured: GI50

CC1CC(C)[C@H](O)C([C@H](O)CC2CC(=O)N(C)C(=O)C2)C1 (stereo partly specified)
inactive: [1] > 100 µM | [2] > 100 µM | [3] > 100 µM | [4] > 100 µM | [5] > 100 µM | [6] > 100 µM | [7] > 100 µM | [8] > 100 µM | [9] > 100 µM | [10] > 100 µM | [11] > 100 µM | [12] > 100 µM | [13] 82.4 µM | [14] > 100 µM | [15] > 100 µM | [16] > 100 µM | [17] > 100 µM | [18] > 100 µM

CCOC(=O)C(=[N+]=[N-])C(=O)CSC#N
inactive: [1] 69.5 µM | [2] > 100 µM | [3] 86.9 µM | [4] 23.8 µM | [5] 25.6 µM | [6] 46 µM | [7] > 100 µM | [8] > 100 µM | [9] 35.1 µM | [10] > 100 µM | [11] > 100 µM | [12] 94.8 µM | [13] > 100 µM | [14] > 100 µM | [15] 22.6 µM | [16] 55 µM | [17] 96.4 µM | [18] 21.3 µM

OCCNCNc1nc(NCNCCO)nc(N(CNCCO)CNCCO)n1
inactive: [1] 18.8 µM | [2] 25.3 µM | [3] 21.1 µM | [4] 19 µM | [5] 22.3 µM | [6] 24.3 µM | [7] 21.5 µM | [8] 13.6 µM | [9] 12.2 µM | [10] 15 µM | [11] 17.7 µM | [12] 28.8 µM | [13] 30.6 µM | [14] 18.5 µM | [15] 18.2 µM | [16] 18.5 µM | [17] 24.4 µM | [18] 19.6 µM

O=C1c2ccccc2C(=O)c2sc(Nc3ccccc3Cl)nc21
inactive: [1] 7.4 µM | [2] 14.3 µM | [3] 16 µM | [4] 5.36 µM | [5] 7.5 µM | [6] 5.85 µM | [19] 3.93 µM | [7] 13.6 µM | [8] 19.8 µM | [9] 2.75 µM | [10] 16.4 µM | [11] 14.6 µM | [12] 19.7 µM | [13] 16.1 µM | [14] 17.6 µM | [16] 14.2 µM | [18] 15.8 µM

O=C(C1OC1c1ccc([N+](=O)[O-])cc1)C12CC3CC(CC(C3)C1)C2 (stereo unspecified)
inactive: [1] 12.1 µM | [2] 18.8 µM | [3] 23.8 µM | [4] 15.2 µM | [5] 13.1 µM | [6] 16.6 µM | [7] 23.4 µM | [8] 21 µM | [9] 2.79 µM | [10] 22.5 µM | [11] 9.98 µM | [12] 18.1 µM | [13] 12.3 µM | [14] 18.2 µM | [15] 12.3 µM | [16] 16.9 µM | [17] 17.6 µM | [18] 15.3 µM

O=C1NN=C(O)C2C3c4ccccc4C(c4ccccc43)C12 (stereo unspecified)
inactive: [1] > 100 µM | [2] > 100 µM | [3] > 100 µM | [4] > 100 µM | [5] > 100 µM | [6] > 100 µM | [19] > 100 µM | [8] > 100 µM | [9] > 100 µM | [10] > 100 µM | [11] > 100 µM | [12] > 100 µM | [13] > 100 µM | [14] > 100 µM | [16] > 100 µM | [17] > 100 µM | [18] > 100 µM

O=C1C=CC[C@H](/C=C/C[C@@H](O)C[C@H](O)/C=C/c2ccccc2)O1
inactive: [1] 15 µM | [2] 12 µM | [3] 10.8 µM | [4] 14.4 µM | [5] 13.8 µM | [6] 14.4 µM | [7] 12.3 µM | [8] 15.1 µM | [9] 3.74 µM | [10] 6.89 µM | [11] 16.1 µM | [12] 11.7 µM | [13] 15.7 µM | [14] 13.3 µM | [15] 11.3 µM | [16] 14.9 µM | [17] 19.1 µM | [18] 9.89 µM

Cc1n[nH]c(=O)n1/N=C/c1cccc(Cl)c1
inactive: [1] > 100 µM | [2] 31 µM | [3] 47.2 µM | [4] > 100 µM | [5] > 100 µM | [6] 64.7 µM | [7] > 100 µM | [8] > 100 µM | [9] > 100 µM | [10] 20.2 µM | [11] > 100 µM | [13] > 100 µM | [14] 35.6 µM | [15] 94.4 µM | [16] > 100 µM | [17] > 100 µM | [18] 89.5 µM
